Several values for one entry are separate records, joined by “and”; a condition that tells them apart may be missing. Identical values can stand only once. Like-named read-outs stand apart in the source and are kept apart here. Each block holds one molecule with its values, some of them ahead of it.
How the values were obtained:
[1] = target: T1, human RORγt (Homo sapiens, UniProt P51449); experiment: Cell-based GAL4-RORγt luciferase reporter assay in HEK293T cells; conditions: for inhibition at 10 µM: HEK-293T
T1 construct: expressed in transfected cells; host or cells: HEK293T
T1 sequence (P51449 269-508 limits assumed): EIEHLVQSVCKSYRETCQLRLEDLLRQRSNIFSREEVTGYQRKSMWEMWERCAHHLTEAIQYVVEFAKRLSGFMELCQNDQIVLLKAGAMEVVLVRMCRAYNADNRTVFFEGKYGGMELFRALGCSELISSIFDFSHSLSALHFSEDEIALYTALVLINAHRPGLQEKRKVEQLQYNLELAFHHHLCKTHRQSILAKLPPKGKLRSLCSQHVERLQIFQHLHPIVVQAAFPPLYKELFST
Method: FIG. 7A is a graph showing the inhibitory rate of various drugs as predicted by an example deep learning network system. […] In total, 18 purchasable drugs for RORγt were tested using a cell-based luciferase reporter assay. In this assay, GAL4-RORγt, with fused human RORγt LBD and GAL4 DNA binding domain are co-transfected into HEK293T cells with a luciferase reporter gene harboring the GAL4 response element33.

[2] = target: firefly luciferase (Photinus pyralis, UniProt P08659); experiment: Control firefly luciferase activity experiment; type: cell-based; conditions: control experiment for promiscuous effects on luciferase
firefly luciferase, sequence (P08659 whole entry): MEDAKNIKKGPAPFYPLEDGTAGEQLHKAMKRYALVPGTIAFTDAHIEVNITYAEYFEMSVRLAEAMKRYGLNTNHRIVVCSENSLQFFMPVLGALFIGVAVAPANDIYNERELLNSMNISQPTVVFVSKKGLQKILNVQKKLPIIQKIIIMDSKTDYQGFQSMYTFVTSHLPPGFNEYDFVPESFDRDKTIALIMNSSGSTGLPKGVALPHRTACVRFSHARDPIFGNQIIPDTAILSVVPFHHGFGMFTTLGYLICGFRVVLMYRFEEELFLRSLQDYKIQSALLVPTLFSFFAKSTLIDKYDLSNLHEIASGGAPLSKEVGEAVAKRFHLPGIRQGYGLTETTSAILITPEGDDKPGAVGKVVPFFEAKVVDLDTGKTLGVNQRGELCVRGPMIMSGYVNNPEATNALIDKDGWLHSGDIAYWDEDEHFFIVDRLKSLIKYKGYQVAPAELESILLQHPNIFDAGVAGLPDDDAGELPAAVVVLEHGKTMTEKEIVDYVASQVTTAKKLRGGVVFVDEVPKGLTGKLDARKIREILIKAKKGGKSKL
Source text: (§1) FIG. 7B is a graph showing the inhibitory rate as a function of topotecan concentration. […] FIG. 7C is a graph showing the effect of topotecan on fluorescence intensity. […] FIG. 7D is a graph showing the effect of topotecan on cell viability.

[3] = tested on: HEK293T cells; experiment: HEK293T cell viability; type: cell-based, human; conditions: same concentration range as in the reporter assay
Source text: as §1

[4] = target: T2, RORγt-LBD (Homo sapiens, UniProt P51449); experiment: HTRF coactivator (SRC-1 peptide) recruitment assay; type: biochemical; conditions: read-out: IC50 (disruption of RORγt-LBD interaction with SRC-1 cofactor peptide)
T2 sequence (P51449 269-508 limits assumed): T1 sequence (P51449 269-508 limits assumed)
Source text: Nuclear receptors execute their versatile transcriptional functions by recruiting positive and negative regulatory proteins, known as coactivators or corepressors, respectively. Agonists promote interactions between nuclear receptors and coactivators, while antagonists either inhibit coactivator binding or facilitate corepressor recruitment. The functional change of the binding of topotecan on RORγt is investigated by utilizing a HTRF assay to evaluate ligand-induced coactivator recruitment to RORγt.
FIG. 7E is another graph showing the inhibitory rate of topotecan as a function of concentration as predicted by an example deep learning network system.

[5] = target: T2, RORγt-LBD; experiment: Circular dichroism (CD) spectrum of RORγt; type: binding
Source text: FIG. 7F is a graph illustrating how topotecan alters the variation of circular dichroism (CD) spectrum of RORγt. CD is a powerful method for probing protein and ligand interactions in solution. […] FIG. 7G is a graph plotting CD Signal as a function of wavelength. […] FIG. 7H is an illustration showing how topotecan interacts with multiple important residues on human RORγt. The binding mode of topotecan to human RORγt is examined using molecular docking. […] Put together, by combining information gleaned from the deep learning network model and experimental assays, topotecan is identified as a novel, direct inhibitor of human RORγt.

[6] = target: T2, RORγt-LBD; experiment: HPLC direct interaction with RORγt-LBD; type: binding
[7] = target: retinoid X receptor α LBD (RXRα-LBD) (Homo sapiens, UniProt P19793); experiment: HPLC direct interaction with RXRα-LBD; type: binding
retinoid X receptor α LBD (RXRα-LBD), sequence (P19793 227-458 limits assumed, species assumed): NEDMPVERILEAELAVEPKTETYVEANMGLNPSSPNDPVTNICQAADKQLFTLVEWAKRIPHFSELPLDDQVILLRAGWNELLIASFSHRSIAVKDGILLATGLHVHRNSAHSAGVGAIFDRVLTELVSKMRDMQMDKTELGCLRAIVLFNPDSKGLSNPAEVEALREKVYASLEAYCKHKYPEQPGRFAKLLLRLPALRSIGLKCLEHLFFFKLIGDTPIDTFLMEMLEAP

[8] = Pharmacokinetics after intraperitoneal injection in mice; type: in vivo
Source text: Where Cmax is the peak concentration, Tmax is the time between administration and reaching Cmax, and t1/2 is the elimination half-life.

[9] = target: T3, RORγt (Mus musculus, UniProt P51450); experiment: Target occupancy in mouse brain with tracer T0901317; type: in vivo, mice
T3 construct: Concentration of T0901317 in mice brain samples; from tissue; host or cells: mouse brain
T3 sequence (P51450 1-495 isoform P51450-2): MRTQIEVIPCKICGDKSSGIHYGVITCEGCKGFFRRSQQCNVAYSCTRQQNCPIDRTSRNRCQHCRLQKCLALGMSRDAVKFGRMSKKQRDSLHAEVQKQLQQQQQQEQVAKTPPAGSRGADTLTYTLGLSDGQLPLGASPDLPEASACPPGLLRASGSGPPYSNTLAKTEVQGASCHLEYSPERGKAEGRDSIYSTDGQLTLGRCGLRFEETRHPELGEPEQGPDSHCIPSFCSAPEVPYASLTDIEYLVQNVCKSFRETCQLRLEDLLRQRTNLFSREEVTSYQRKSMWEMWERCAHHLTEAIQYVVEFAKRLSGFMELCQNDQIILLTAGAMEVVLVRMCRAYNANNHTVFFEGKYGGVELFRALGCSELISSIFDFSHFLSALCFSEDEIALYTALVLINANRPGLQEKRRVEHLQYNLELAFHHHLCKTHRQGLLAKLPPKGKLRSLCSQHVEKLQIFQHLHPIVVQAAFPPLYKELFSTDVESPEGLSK
Method: In the data presented in Table 2, T0901317, an orthosteric ligand of RORγt, was used as the tracer for assessing target occupancy of TPT. A Student's t-test was performed to obtain the p-value, and sterile water was used as vehicle.

[10] = tested on: EAE mice; experiment: Experimental autoimmune encephalomyelitis (EAE) model; type: in vivo, C57BL/6 mice
Method: FIG. 8A is a schedule of the application of an experimental autoimmune encephalomyelitis (EAE) model. EAE is a most frequently used experimental animal model for human multiple sclerosis. To investigate the therapeutic potential of topotecan in multiple sclerosis, EAE was induced in C57BL/6 mice by active immunization with […] in complete Freund's adjuvant (CFA) followed by pertussis toxin administration, according to the application schedule shown in FIG. 8A. Topotecan (10 mg/kg) or vehicle (sterile water, control) was administered intraperitoneally every four days during the course of EAE. Disease severity was assessed and graded using a five-point scoring system for 15 days.
During the course of EAE, changes in body weight also reflect disease severity. FIG. 8C is a graph showing weight loss in miss after the application of topotecan during EAE.
Multiple sclerosis is a chronic demyelinating disease accompanied by blood-brain barrier disruption. Near-infrared in vivo imaging is further utilized to evaluate the demyelination and blood-brain barrier leakage in EAE mice. A near-infrared fluorescent dye, 3, 3′-diethylthiatricarbocyanine iodide (DBT), easily enter into the brain and selectively binds to myelin fibers45. […] Cy5.5-BSA, a fluorescent BSA conjugate with bright near infrared fluorescence, penetrates the brain when the blood-brain barrier is disrupted.
T helper 17 (Th17) cells are a highly pro-inflammatory lineage of T helper cells defined by their production of interleukin 17 (IL-17)46. RORγt is necessary and sufficient for cytokine IL-17 expression in mouse and human Th17 cells46. Given the inhibitory effects of topotecan against RORγt, it was investigated whether topotecan affects IL-17 expression in EAE mice.

[11] = tested on: normal cell lines or other mice organs; experiment: Toxicity on normal cell lines or mice organs
Source text: Accordingly, as predicted by the systems and methods presented herein, topotecan is a good drug candidate in possible treatment of MS.

[12] = target: T4, ADRA2A (Homo sapiens, UniProt P08913); conditions: published experimental data; cited from earlier work
T4 sequence (P08913 1-465): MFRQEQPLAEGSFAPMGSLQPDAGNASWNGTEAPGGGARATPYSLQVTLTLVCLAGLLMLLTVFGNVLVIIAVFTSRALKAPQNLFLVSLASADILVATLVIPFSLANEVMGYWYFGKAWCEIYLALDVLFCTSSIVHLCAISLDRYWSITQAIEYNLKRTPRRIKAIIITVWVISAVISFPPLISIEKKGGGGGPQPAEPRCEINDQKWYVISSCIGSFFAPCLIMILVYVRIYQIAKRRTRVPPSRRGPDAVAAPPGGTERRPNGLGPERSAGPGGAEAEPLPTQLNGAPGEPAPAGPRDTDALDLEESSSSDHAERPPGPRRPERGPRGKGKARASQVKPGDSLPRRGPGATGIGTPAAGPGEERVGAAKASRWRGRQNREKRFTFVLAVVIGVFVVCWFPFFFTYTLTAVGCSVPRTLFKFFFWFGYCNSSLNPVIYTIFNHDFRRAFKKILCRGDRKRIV

[13] = target: DRD2 (Homo sapiens, UniProt P14416); conditions: published experimental data; cited from earlier work
DRD2, sequence (P14416 whole entry, the tested form may be a part): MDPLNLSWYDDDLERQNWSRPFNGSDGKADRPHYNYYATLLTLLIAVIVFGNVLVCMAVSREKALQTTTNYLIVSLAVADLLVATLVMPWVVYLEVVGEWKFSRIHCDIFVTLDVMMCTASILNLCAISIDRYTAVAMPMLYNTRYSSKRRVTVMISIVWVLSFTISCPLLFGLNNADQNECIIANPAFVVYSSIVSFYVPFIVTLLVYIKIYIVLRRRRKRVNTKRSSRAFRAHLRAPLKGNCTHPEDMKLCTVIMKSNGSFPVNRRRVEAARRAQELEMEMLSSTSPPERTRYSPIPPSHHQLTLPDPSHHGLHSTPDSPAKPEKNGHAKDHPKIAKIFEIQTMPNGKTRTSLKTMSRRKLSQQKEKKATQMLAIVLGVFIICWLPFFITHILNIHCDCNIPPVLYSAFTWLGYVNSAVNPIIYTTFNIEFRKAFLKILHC

[14] = at a concentration of 10 μM, GAL4-RORγt HEK293T luciferase reporter, read-out: inhibitory rate
[15] = mouse, ip, brain, intraperitoneal injection in mice
[16] = mouse, ip, plasma, intraperitoneal injection in mice
[17] = 10 mg/kg intraperitoneally every four days
[18] = read-out: inhibitory rate, at a concentration of 10 μM, GAL4-RORγt HEK293T luciferase reporter

Compound: CC[C@@]1(O)C(=O)OCc2c1cc1n(c2=O)Cc2cc3c(CN(C)C)c(O)ccc3nc2-1 [topotecan]
IC50 ([1]; GAL4-RORγt expressing HEK293T cells, read-out: IC50 (antagonistic activity)): 0.43 ± 0.02 µM | inhibitory rate ([1]; at a concentration of 10 μM, GAL4-RORγt HEK293T luciferase reporter, 10 µM): 71.0% | suppression of control firefly luciferase activity [2]: no suppression is observed | effect on HEK293T cell viability [3]: minor effect | IC50 [4]: 6.65 ± 0.02 µM | change of CD spectrum of RORγt (direct binding) [5]: alters the variation of CD spectrum of RORγt | direct interaction by HPLC [6]: directly interacts with RORγt-LBD | direct interaction by HPLC [7]: not with retinoid X receptor α LBD | brain penetration ([8]; mouse models): ideal brain penetration | AUC(0-inf) [8, 15]: 173 ng·h/mL | AUC(0-t) [8, 15]: 170 ng·h/mL | Cmax [8, 15]: 121 ng/mL | Tmax [8, 15]: 30 min | AUC(0-inf) [8, 16]: 3310 ng·h/mL | AUC(0-t) [8, 16]: 3280 ng·h/mL | Cmax [8, 16]: 3250 ng/mL | Tmax [8, 16]: 30 min | half-life [8, 16]: 289 min | Concentration of T0901317 in mice brain samples ([9]; individual mice 1-5, TPT-treated, tracer T0901317, listed as TPT): 2788.48 ng/g and 4396.96 ng/g and 3365.97 ng/g and 3736.16 ng/g and 3212.96 ng/g | Concentration of T0901317 in mice brain samples, Mean ([9]; mean of 5 TPT-treated mice, vehicle mean 4426.55, P-value 0.0029): 3500.11 ng/g | EAE induced body weight loss [10, 17]: more tolerable to EAE induced body weight loss than vehicle-treated mice | onset of clinical symptoms [10, 17]: significantly delay in the onset of clinical symptoms | clinical score ([10]; 10 mg/kg intraperitoneally every four days, five-point scoring): observable reduction of clinical score | IL-17 production in brain and spinal cords ([10]; ELISA): significantly reduces IL-17 production | demyelination in white matter (LFB staining) ([10]; day 20 after immunization): demyelination is significantly reversed | infiltration of leukocytes in spinal cord (H&E staining) ([10]; day 20 after immunization): infiltration is largely reduced | DBT near-infrared fluorescence (myelin imaging) ([10]; near-infrared in vivo imaging): reverses fluorescence | accumulation of Cy5.5-BSA fluorescent probe in the brain (blood-brain barrier leakage) ([10]; near-infrared in vivo imaging): higher accumulation of the fluorescent probe in the brain of vehicle treated mice as compared to the topotecan treatment group | toxicity on normal cell lines or other mice organs [11]: very low toxicity

Compound: CC(C)(Oc1ccc(CCNC(=O)c2ccc(Cl)cc2)cc1)C(=O)O [bezafibrate]
inhibition at 10 µM [1, 14]: > 30%

Compound: CC(CCc1ccc(O)cc1)NCCc1ccc(O)c(O)c1 (stereo not drawn) [dobutamine]
IC50 [12]: 10.8 µM | IC50 [13]: 8.22 µM

Now from value to molecule:

inhibition at 10 µM [1, 14]: > 30%
Compound: CN(CCOc1ccc(CC2SC(=O)NC2=O)cc1)c1ccccn1 (stereo not drawn) [rosiglitazone]

inhibition at 10 µM [1, 14]: > 30%
Compound: CCOC(=O)c1ccc(C#Cc2ccc3c(c2)C(C)(C)CCS3)nc1 [tazarotene]

inhibition at 10 µM [1, 18]: > 30%
Compound: C#C[C@]1(O)CC[C@H]2[C@@H]3CCC4=CC(=O)CC[C@@H]4[C@H]3CC[C@@]21C [norethindrone]

inhibition at 10 µM [1, 18]: > 30%
Compound: CC(=O)S[C@@H]1CC2=CC(=O)CC[C@]2(C)[C@H]2CC[C@@]3(C)[C@@H](CC[C@@]34CCC(=O)O4)[C@H]12 [spironolactone]
